Data: patent US11026944B2, “Compositions and methods for treating insomnia” (Eisai R&D Management Co., Ltd., priority 2014, dated 2021)
Read-outs that look alike come from different tables or passages of the source.

Test: Crossover study of relative bioavailability of tablet versus capsule (005 Study): plasma PK
Format: in vivo, human
Conditions: for Tmax / concentration at 8 h / AUC(0-t) / AUC(0-inf) / Cmax / half-life: human, plasma; for concentration at 8 h: plasma at 8 h, read-out: C8 Mean(SD); for AUC(0-inf): read-out: AUC(0-inf) Mean(SD); for Cmax: read-out: Cmax Mean(SD); for half-life: read-out: t1/2 Mean(SD) (converted)
Method: Single-center, open-label, randomized crossover study was conducted to evaluate, in healthy adult subjects, the bioavailability of single solid oral doses of compound A in tablet formulation relative to single oral doses of compound A in capsule formulation at 2.5, 10, and 25 mg. Another objective of the study was to evaluate the safety and tolerability of tablet formulations of compound A at 2.5, 10, and 25 mg in healthy adult subjects. Approximately 36 subjects were randomly assigned to one of three cohorts (approximately 12 subjects per cohort) and received both a single dose of compound A as a capsule formulation and a single dose of compound A as a tablet formulation, in random sequence, in a 1:1 ratio. The doses were 2.5 mg, 10 mg, and 25 mg.
The study had two phases: Prerandomization and Randomization. The Prerandomization Phase lasted for up to 21 days and included a Screening Period and Baseline Period A, during which eligibility was established and baseline assessments before dosing of the first formulation occurred. The Randomization Phase consisted of two Treatment Periods (A and B), separated by Baseline Period B. On the first day of Treatment Period A, subjects received a single oral dose of the first formulation. After the first formulation dose, pharmacokinetic (PK) and safety assessments were obtained throughout Treatment Period A, and subjects completed a 20-day washout. Before dosing of the second formulation, subjects completed Baseline Period B assessments. Subjects then proceeded to Treatment Period B and received a single oral dose of the second formulation. Pharmacokinetic and safety assessments were obtained throughout Treatment Period B.
Blood samples for the determination of plasma concentrations of compound A were collected at the following times: Treatment Period A (Day 1 to Day 15): before and after dosing at 0.5 (30 minutes), 1, 1.5, 2, 3, 4, 5, 6, 8, 12, 24, 48, 72, 120, 168, 240, and 336 hours; Treatment Period B (Day 22 to Day 36): before and after dosing at 0.5 (30 minutes), 1, 1.5, 2, 3, 4, 5, 6, 8, 12, 24, 48, 72, 120, 168, 240, and 336 hours.
Plasma concentrations of compound A were measured using a validated liquid chromatography-tandem mass spectrometry (LC-MS/MS) assay.
Noncompartmental methods were used to calculate the following plasma PK parameters for compound A: area under the plasma concentration-time curve from time zero to 8 hours after dosing (AUC(0-8)), area under the plasma concentration-time curve from time zero to 72 hours after dosing (AUC(0-72)), area under the plasma concentration-time curve from time zero to time of the last quantifiable concentration (AUC(0-t)), area under the plasma concentration-time curve from time zero extrapolated to time infinity (AUC(0-inf)), maximum observed plasma drug concentration (Cmax), terminal elimination half-life (t1/2), absorption lag time (tlag), and time to reach the maximum (peak) plasma concentration after drug administration (tmax). The primary PK parameters were AUC(0-inf) and Cmax. The individual PK parameters of compound A were presented in the data listings by formulation (tablet or capsule) and dose (2.5, 10, or 25 mg). The PK parameters except tmax and tlag were summarized by formulation and dose using descriptive statistics: number of subjects, mean, SD, coefficient of variation, geometric mean, median, minimum, and maximum. The parameters tmax and tlag were summarized by formulation and dose using the following descriptive statistics: median, minimum, maximum, and the 90% confidence interval (CI) of the median point estimate. The natural log (In)-transformed PK parameters for compound A (AUC(0-inf), Cmax, AUC(0-8), AUC(0-72), and AUC(0-t)) were compared separately by dose with a mixed-effects model with sequence, treatment period, and formulation as fixed effects and subjects nested within sequence as a random effect. […]

[1] = across all dose levels (2.5, 10, 25 mg)
[2] = po, 2.5 mg, single oral 2.5 mg Capsule, healthy adults
[3] = po, 2.5 mg, single oral 2.5 mg Tablet, healthy adults
[4] = po, 10 mg, single oral 10 mg Capsule, healthy adults
[5] = po, 10 mg, single oral 10 mg Tablet, healthy adults
[6] = po, 25 mg, single oral 25 mg Capsule, healthy adults
[7] = po, 25 mg, single oral 25 mg Tablet, healthy adults

## Cc1ncc(OC[C@@]2(c3cccc(F)c3)C[C@H]2C(=O)Nc2ccc(F)cn2)c(C)n1 [Compound A, (1R,2 S)-2-(((2,4-dimethylpyrimidin-5-yl)oxy)methyl)-2-(3-fluorophenyl)-N-(5-fluoropyridin-2-yl) cyclopropanecarboxamide]
[1]
  Differences between formulations (tablet vs capsule) in AUC(0-8), AUC(0-72), AUC(0-t), AUC(0-inf): less than 13%
  Differences between tablet and capsule formulations in Cmax: less than 16%
Either formulation, any dose level
  absorption lag: no observed absorption lag
oral, tablet and capsule, across all dose levels, read-out: median tmax
  Tmax: 1 to 1.5 h
po, 2.5 mg, single oral 2.5 mg Capsule
  concentration at 8 h: 1.84 ng/mL
po, 2.5 mg, single oral 2.5 mg Tablet
  concentration at 8 h: 1.75 ng/mL
po, 2.5 mg, single oral 2.5 mg Capsule, healthy adults, read-out: AUC(0-8) Mean(SD)
  AUC(0-t): 45.5 ng·h/mL
po, 2.5 mg, single oral 2.5 mg Capsule, healthy adults, read-out: AUC(0-72) Mean(SD)
  AUC(0-t): 85.1 ng·h/mL
[2]
  AUC(0-inf): 103 ng·h/mL
  Cmax: 15.9 ng/mL
  half-life: 36.8 h
po, 2.5 mg, single oral 2.5 mg Capsule, healthy adults, read-out: AUC(0-t) Mean(SD)
  AUC(0-t): 94.9 ng·h/mL
po, 2.5 mg, single oral 2.5 mg Capsule, healthy adults, read-out: tmax (median)
  Tmax: 1 h
po, 2.5 mg, single oral 2.5 mg Tablet, healthy adults, read-out: AUC(0-8) Mean(SD)
  AUC(0-t): 47.1 ng·h/mL
po, 2.5 mg, single oral 2.5 mg Tablet, healthy adults, read-out: AUC(0-72) Mean(SD)
  AUC(0-t): 84.3 ng·h/mL
[3]
  AUC(0-inf): 101 ng·h/mL
  Cmax: 18 ng/mL
  half-life: 35.1 h
po, 2.5 mg, single oral 2.5 mg Tablet, healthy adults, read-out: AUC(0-t) Mean(SD)
  AUC(0-t): 93.2 ng·h/mL
po, 2.5 mg, single oral 2.5 mg Tablet, healthy adults, read-out: tmax (median)
  Tmax: 1 h
po, 10 mg, single oral 10 mg Capsule
  concentration at 8 h: 8.9 ng/mL
po, 10 mg, single oral 10 mg Tablet
  concentration at 8 h: 7.44 ng/mL
po, 10 mg, single oral 10 mg Capsule, healthy adults, read-out: AUC(0-8) Mean(SD)
  AUC(0-t): 164 ng·h/mL
po, 10 mg, single oral 10 mg Capsule, healthy adults, read-out: AUC(0-72) Mean(SD)
  AUC(0-t): 372 ng·h/mL
[4]
  AUC(0-inf): 531 ng·h/mL
  Cmax: 49 ng/mL
  half-life: 57 h
po, 10 mg, single oral 10 mg Capsule, healthy adults, read-out: AUC(0-t) Mean(SD)
  AUC(0-t): 511 ng·h/mL
po, 10 mg, single oral 10 mg Capsule, healthy adults, read-out: tmax (median)
  Tmax: 1.5 h
po, 10 mg, single oral 10 mg Tablet, healthy adults, read-out: AUC(0-8) Mean(SD)
  AUC(0-t): 178 ng·h/mL
po, 10 mg, single oral 10 mg Tablet, healthy adults, read-out: AUC(0-72) Mean(SD)
  AUC(0-t): 341 ng·h/mL
[5]
  AUC(0-inf): 472 ng·h/mL
  Cmax: 58.1 ng/mL
  half-life: 59.5 h
po, 10 mg, single oral 10 mg Tablet, healthy adults, read-out: AUC(0-t) Mean(SD)
  AUC(0-t): 455 ng·h/mL
po, 10 mg, single oral 10 mg Tablet, healthy adults, read-out: tmax (median)
  Tmax: 1 h
po, 25 mg, single oral 25 mg Capsule
  concentration at 8 h: 19.9 ng/mL
po, 25 mg, single oral 25 mg Tablet
  concentration at 8 h: 17.6 ng/mL
po, 25 mg, single oral 25 mg Capsule, healthy adults, read-out: AUC(0-8) Mean(SD)
  AUC(0-t): 358 ng·h/mL
po, 25 mg, single oral 25 mg Capsule, healthy adults, read-out: AUC(0-72) Mean(SD)
  AUC(0-t): 803 ng·h/mL
[6]
  AUC(0-inf): 1110 ng·h/mL
  Cmax: 105 ng/mL
  half-life: 57.4 h
po, 25 mg, single oral 25 mg Capsule, healthy adults, read-out: AUC(0-t) Mean(SD)
  AUC(0-t): 1080 ng·h/mL
po, 25 mg, single oral 25 mg Capsule, healthy adults, read-out: tmax (median)
  Tmax: 1.5 h
po, 25 mg, single oral 25 mg Tablet, healthy adults, read-out: AUC(0-8) Mean(SD)
  AUC(0-t): 386 ng·h/mL
po, 25 mg, single oral 25 mg Tablet, healthy adults, read-out: AUC(0-72) Mean(SD)
  AUC(0-t): 795 ng·h/mL
[7]
  AUC(0-inf): 1100 ng·h/mL
  Cmax: 120 ng/mL
  half-life: 57.6 h
po, 25 mg, single oral 25 mg Tablet, healthy adults, read-out: AUC(0-t) Mean(SD)
  AUC(0-t): 1070 ng·h/mL
po, 25 mg, single oral 25 mg Tablet, healthy adults, read-out: tmax (median)
  Tmax: 1 h
